Data on six compounds can be found in patent EP3421457B1, “PYRIMIDINE FGFR4 INHIBITORS” (priority 2013, dated 2015).

Read-outs that look alike come from different tables or passages of the source.

For one series, the system named is JHH7. Nature of the series: Cellular Viability assay to obtain GI50 (CellTiter-Glo). The note with it: Homo sapiens; JHH7, 72h, FGF19 amplified line. It counts as cell-based. A general note: ATP-based viability assays read luminescence as a measure of living cells.
The next series relates to HEPG2. The series is described as above. It is filed as cell-based. The note with it: Homo sapiens; HEPG2, 72h, FGF19 non-amplified.
Another series concerns HUH7. The description is as above. It counts as cell-based. The note with it: Homo sapiens, Huh-7; HUH7, 72h, FGF19 amplified line.
The next series concerns HEP3B. The description is as above. It is filed as cell-based. The note with it: Homo sapiens, 72h, FGF19 amplified line.
In another series the test system is Hep3B cells. It counts as in vivo. The note with it: Hep3B xenograft; for efficacy (tumor volume): FIG. 4.
Another series has as its target T1, FGFR1 (Homo sapiens, UniProt P11362).
T1 construct: purchased Invitrogen
Briefly: IC50 Profiling of Kinase Activity Inhibition (Kinase HotSpot assay). It is filed as biochemical. The note with it: Table 1.

Another series addresses T2, FGFR4 (Homo sapiens, UniProt P22455).
T2 construct: purchased Invitrogen
The series is described as above. It is filed as biochemical. The note with it: Table 1.

T2 sequence (P22455 22-802): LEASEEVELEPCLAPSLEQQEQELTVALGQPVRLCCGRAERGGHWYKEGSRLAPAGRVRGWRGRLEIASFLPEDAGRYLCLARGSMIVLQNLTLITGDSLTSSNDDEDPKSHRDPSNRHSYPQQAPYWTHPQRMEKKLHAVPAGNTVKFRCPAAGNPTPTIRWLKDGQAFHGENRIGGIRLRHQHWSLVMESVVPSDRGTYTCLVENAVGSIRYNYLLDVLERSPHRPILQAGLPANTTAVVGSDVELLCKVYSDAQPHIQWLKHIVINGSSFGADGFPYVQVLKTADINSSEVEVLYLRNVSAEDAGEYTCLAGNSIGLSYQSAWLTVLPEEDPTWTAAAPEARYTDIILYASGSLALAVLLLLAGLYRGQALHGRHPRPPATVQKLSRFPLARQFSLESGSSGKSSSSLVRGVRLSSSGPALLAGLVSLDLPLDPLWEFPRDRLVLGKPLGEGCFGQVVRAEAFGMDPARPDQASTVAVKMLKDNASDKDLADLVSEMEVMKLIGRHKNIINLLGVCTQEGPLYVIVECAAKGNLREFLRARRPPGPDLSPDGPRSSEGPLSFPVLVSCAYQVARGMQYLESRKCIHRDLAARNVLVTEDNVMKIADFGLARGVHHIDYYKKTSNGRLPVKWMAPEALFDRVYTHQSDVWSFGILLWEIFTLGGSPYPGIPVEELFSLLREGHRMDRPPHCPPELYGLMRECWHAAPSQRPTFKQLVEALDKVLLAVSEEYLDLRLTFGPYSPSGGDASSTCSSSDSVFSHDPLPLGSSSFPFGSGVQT
T1 sequence (P11362 22-822): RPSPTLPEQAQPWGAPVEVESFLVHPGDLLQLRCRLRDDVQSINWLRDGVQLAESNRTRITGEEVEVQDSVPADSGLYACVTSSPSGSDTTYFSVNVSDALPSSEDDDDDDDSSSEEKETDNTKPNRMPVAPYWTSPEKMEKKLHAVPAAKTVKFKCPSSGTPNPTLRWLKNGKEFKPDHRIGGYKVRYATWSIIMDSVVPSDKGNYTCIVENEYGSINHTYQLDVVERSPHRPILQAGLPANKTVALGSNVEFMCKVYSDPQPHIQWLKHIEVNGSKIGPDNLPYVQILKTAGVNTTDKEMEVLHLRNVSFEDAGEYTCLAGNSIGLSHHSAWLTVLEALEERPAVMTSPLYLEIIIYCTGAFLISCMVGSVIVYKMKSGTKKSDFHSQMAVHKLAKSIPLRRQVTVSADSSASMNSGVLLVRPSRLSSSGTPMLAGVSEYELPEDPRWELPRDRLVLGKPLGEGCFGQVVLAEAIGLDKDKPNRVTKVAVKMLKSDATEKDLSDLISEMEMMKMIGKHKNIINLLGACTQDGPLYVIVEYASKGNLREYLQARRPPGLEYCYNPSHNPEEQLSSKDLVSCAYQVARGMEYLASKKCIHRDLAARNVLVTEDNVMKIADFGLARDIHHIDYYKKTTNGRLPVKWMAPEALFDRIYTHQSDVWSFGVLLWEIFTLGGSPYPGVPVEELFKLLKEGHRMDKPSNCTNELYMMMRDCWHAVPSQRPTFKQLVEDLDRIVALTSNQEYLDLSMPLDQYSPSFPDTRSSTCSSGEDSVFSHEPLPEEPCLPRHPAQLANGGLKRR

Regarding `CCN1CCN(c2ccc(Nc3cc(N(C)C(=O)Nc4c(Cl)c(OC)cc(OC)c4Cl)ncn3)cc2)CC1` [BGJ398], the GI50 – broadly, the concentration giving 50% growth inhibition – was 178 ± 30 nM in the series on JHH7, 2260 ± 1180 nM with HEPG2, 231 ± 100 nM in the series on HUH7 and 74 ± 23 nM in the series with HEP3B. For the same compound, the “efficacy (tumor volume)” value with Hep3B cells (BGJ398 at 60mg/kg) is given as “efficacy comparable to compound 108”. The “toxicity (health of animals)” value with Hep3B cells (BGJ398 at 60mg/kg) was “terminated on Day 11 due to poor health of animals”; with Hep3B cells (dosed orally with BGJ398 at 30mg/kg) it was “did not exhibit poor health”.

Regarding `C=CC(=O)Nc1ccccc1Nc1cc(N(C)C(=O)Nc2cc(OC)cc(OC)c2Cl)ncn1` [Compound 105], the IC50 (in general, the concentration that inhibits the measured activity by half) on FGFR1 is greater than 10000 nM; against FGFR4, 201 nM.

Consider `C=CC(=O)Nc1cc(N2CCN(CC)CC2)ccc1Nc1cc(N(C)C(=O)Nc2c(Cl)c(OC)cc(OC)c2Cl)ncn1` [Compound 108, N-(2-(6-(3-(2,6-Dichloro-3,5-dimethoxyphenyl)-1-methylureido)pyrimidin-4-ylamino)-5-(4-ethylpiperazin-1-yl)phenyl)acrylamide], for which the “efficacy (tumor volume)” value in the series on Hep3B cells (dosed for 18 days, Compound 108 versus BGJ398) is listed as “more efficacious than BGJ398 at tolerable dosage levels”.

In turn, `C=CC(=O)Nc1cc(C(C)O)ccc1Nc1cc(N(C)C(=O)Nc2c(Cl)c(OC)cc(OC)c2Cl)ncn1` (centres unmarked) [Compound 156, N-(2-((6-(3-(2,6-dichloro-3,5-dimethoxyphenyl)-1-methylureido)pyrimidin-4-yl)amino)-5-(1-hydroxyethyl)phenyl) acrylamide] displayed an IC50 on FGFR4 of less than 1 nM.

With `C=CC(=O)Nc1cc(COC)ccc1Nc1cc(N(C)C(=O)Nc2c(Cl)c(OC)cc(OC)c2Cl)ncn1` [Compound 147, N-(2-((6-(3-(2,6-dichloro-3,5-dimethoxyphenyl)-l-methylureido)pyrimidin-4-yl)amino)-5-(methoxymethyl)phenyl)acrylamide], the half-inhibitory concentration (IC50) against FGFR4 was less than 1 nM.

As to `C=CC(=O)Nc1ccccc1Nc1cc(N(C)C(=O)Nc2cccc(OC)c2Cl)ncn1` [Compound 103], the IC50 was greater than 10000 nM on FGFR1 and 673 nM against FGFR4.
